From patent publication EP4800013A1, “PARG INHIBITOR” (Shanghai Qilu Pharmaceutical Research and Development …, priority 2023, dated 2025)

Key:
KURAMOCHI cells = assay: Inhibition of proliferation of KURAMOCHI cells (CellTiter-Glo, intracellular ATP); format: cell-based; details: 168 h, incubated for 7 days, read-out: IC50 against KURAMOCHI cells
Description: In this experiment, the inhibitory effect of the compounds of the present disclosure on the proliferation of the cancer cell line KURAMOCHI was evaluated by measuring intracellular ATP levels using a bioluminescent assay, and the half maximal inhibitory concentration (IC50) was determined.
RPMI 1640 medium (Cat. No. 11875-093), fetal bovine serum (10099-141), and 100× Pen/Strep (15070-063) were purchased from GIBCO. CellTiter-Glo Luminescent Cell Viability Assay reagent (Cat. No. G7573) was purchased from Promega.
• 1) Day 1: KURAMOCHI cells were counted using a cell counter and seeded into a 96-well culture plate at a density of 4000 cells per well in 100 µL medium. The plate was incubated overnight in an incubator (37°C, 5% CO2). • 2) Day 2: Using a D300e digital dispenser (TECAN), 500 nL of serially diluted test compounds of the present disclosure (starting at 10 µM, a total of 9 concentrations, 1:4 dilution) were added to the cells in the culture plate. The final concentration of DMSO was 0.5%. The cell culture plate was incubated for 7 days in a cell culture incubator (37°C, 5% CO2). Control group 1 received only medium and DMSO (100% inhibition group). Control group 2 received only DMSO (0% inhibition group). The final concentration of DMSO in both groups was 0.5%. • 3) Day 9: 100 µL of CellTiter-Glo reagent was added to each well. The plate was shaken at 500 rpm for 2 minutes, centrifuged at 1000 rpm for 1 minute, and then incubated at room temperature in the dark for 10 minutes to stabilize the luminescence signal. • 4) Luminescence signals were measured using an EnVision microplate reader (PerkinElmer). • 5) Data analysis was performed using GraphPad Prism 8. The IC50 values of the compounds of the present disclosure were calculated as follows. The CTG signal values were analyzed. The average inhibition rate of control group 1 (100% inhibition group) was set as the relative inhibition rate of 100%. The average inhibition rate of control group 2 (0% inhibition group) was set as the relative inhibition rate of 0%. The CTG signal values were converted into relative inhibition rates. The inhibition percentage (inhibition%) for each concentration of the compounds of the present disclosure was calculated according to the following formula: Inhibition% = (b−x)/(b−a)*100%; [formula] • a = CTG value (highest concentration), b = CTG value (blank well), x = CTG value (test well). • IC50 was calculated using GraphPad Prism 8. • (1) The concentration and inhibition rate corresponding to each well were recorded. Statistical calculation was performed using Log10 (compound concentration). • (2) The data were input into GraphPad Prism 8 and Analysis was selected. • (3) Nonlinear regression (curve fit) was selected. • (4) Log (inhibitor) vs. response - Variable slope was selected. • (5) The calculation formula was selected, and the calculation was performed according to the following formula: Y = Bottom + (Top - Bottom) / (1 + 10 ^ ((LogIC50 - X) * HillSlope)); X: log of dose or concentration; Y: response; Top and Bottom: maximum and minimum response. • (6) The IC50 values were calculated by fitting the data. Table 16: Inhibitory effect of the compounds of the present disclosure on the proliferation of KURAMOCHI cells

PARG = molecular target: T1, PARG (Homo sapiens, UniProt Q86W56); assay: Enzymatic inhibitory activity against PARG, HTRF assay; format: biochemical; details: HTRF; PARylated PARP1 protein as substrate; 60 minutes at room temperature; read-out: IC50 against PARG enzyme
T1 construct: made in house
Description: In this experiment, the enzymatic inhibitory activity of the compounds of the present disclosure against PARG was determined using an HTRF (homogeneous time-resolved fluorescence) assay.
HTRF assay reagents were purchased from PerkinElmer (Cat. Nos. 61HISTLB and 610SAXLB). The purified protein was prepared in-house.
PARG enzyme reaction buffer: 50 mM Tris (pH 7.4), 0.1 mg/mL BSA, 3 mM EDTA, 0.4 mM EGTA, 1 mM DTT, 50 mM KCl, and 0.01% Tween 20.
• 1) Using an ultra-micro pipette, the compounds of the present disclosure were serially diluted (starting at 10 µM with 3- to 5-fold serial dilutions) and added to a 384-well reaction plate, with each concentration tested in duplicate wells. Control group 1 was added with 10 µM control compound (100% inhibition group). Control group 2 was added with DMSO (0% inhibition group). After compound addition, the 384-well plate was centrifuged at 1000 rpm for 1 minute. • 2) 2.5 µL of PARG protein was added to each well and incubated with the compounds of the present disclosure at room temperature for 15 minutes, followed by centrifugation at 1000 rpm for 1 minute. • 3) 2.5 µL of PARylated PARP1 protein was added to each well and incubated at room temperature for 60 minutes, followed by centrifugation at 1000 rpm for 1 minute. • 4) 5 µL of His-Tb & SA-XL665 HTRF assay reagents were added to each well and incubated at room temperature for 60 minutes, followed by centrifugation at 1000 rpm for 1 minute. • 5) […] were measured using a PHERAstar FSX microplate reader from BMG. • 6) Data analysis was performed using GraphPad Prism 8. The IC50 values of the compounds of the present disclosure were calculated as follows. […] The average value of duplicate wells in control group 2 (0% inhibition group) was set as the relative inhibition rate of 0%. The HTRF signal values were converted into relative inhibition rates. The IC50 values of the compounds were calculated by fitting the data to a four-parameter logistic model. Table 15: Enzymatic inhibitory activity of the compounds of the present disclosure against PARG

T1 sequence (Q86W56 whole entry): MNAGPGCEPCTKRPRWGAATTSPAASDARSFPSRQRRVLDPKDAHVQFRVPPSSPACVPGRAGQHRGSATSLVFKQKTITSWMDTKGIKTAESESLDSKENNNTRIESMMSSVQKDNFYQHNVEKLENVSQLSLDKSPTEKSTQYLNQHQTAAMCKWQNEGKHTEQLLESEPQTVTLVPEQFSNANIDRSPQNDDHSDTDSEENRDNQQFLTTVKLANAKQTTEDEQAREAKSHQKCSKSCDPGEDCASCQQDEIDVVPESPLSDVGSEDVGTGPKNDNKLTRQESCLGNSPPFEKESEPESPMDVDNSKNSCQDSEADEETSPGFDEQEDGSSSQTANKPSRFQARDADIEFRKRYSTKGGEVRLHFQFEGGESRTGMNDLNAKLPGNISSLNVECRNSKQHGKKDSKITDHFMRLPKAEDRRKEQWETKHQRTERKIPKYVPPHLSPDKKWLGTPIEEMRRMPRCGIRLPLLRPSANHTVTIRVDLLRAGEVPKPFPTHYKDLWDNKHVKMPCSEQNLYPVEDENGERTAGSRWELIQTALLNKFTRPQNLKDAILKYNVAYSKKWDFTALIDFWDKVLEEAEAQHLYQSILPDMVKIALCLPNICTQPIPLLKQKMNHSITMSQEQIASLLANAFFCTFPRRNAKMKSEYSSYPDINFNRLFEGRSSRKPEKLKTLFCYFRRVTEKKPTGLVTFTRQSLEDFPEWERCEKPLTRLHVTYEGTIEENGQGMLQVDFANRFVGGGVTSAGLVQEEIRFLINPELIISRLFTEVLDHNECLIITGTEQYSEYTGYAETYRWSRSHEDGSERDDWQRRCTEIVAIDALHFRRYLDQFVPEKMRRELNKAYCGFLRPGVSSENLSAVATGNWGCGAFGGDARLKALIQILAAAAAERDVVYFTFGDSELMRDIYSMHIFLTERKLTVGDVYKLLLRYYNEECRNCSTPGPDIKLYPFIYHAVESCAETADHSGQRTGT

SMILES | IC50 (KURAMOCHI cells) [nM] | IC50 (PARG) [nM]
C[C@H]1CN(c2cc(S(=O)(=O)NC3(C)COC3)cc3c2n2ncnc2n3-c2nnc(C(F)F)s2)C[C@H](C)N1 [Compound 065P] | 7 | 5.8
C=CCn1c(=O)n(-c2nnc(C(F)F)s2)c2cc(S(=O)(=O)NC3(C#N)CC3)cc(N3CCN(S(=O)(=O)C4CCOC4)CC3)c21 (stereo not shown) [Compound 074C] | 13 | 2.9
C=CCn1c(=O)n(-c2nnc(C(F)F)s2)c2cc(S(=O)(=O)NC3(C#N)CC3)cc(N3CCN(C(=O)C4(C)CC4)CC3)c21 [Compound 067Y] | 34 | 21.2
C[C@H]1CN(c2cc(S(=O)(=O)NC3(C)CC3)cc3c2n2nc(C(=O)NC4(C)CC4)nc2n3-c2nnc(C(F)F)s2)C[C@H](C)N1 [Compound 084K] | 9 | 0.7
CN(C)C(=O)N1CCN(c2cc(S(=O)(=O)NC3(C)CC3)cc3c2ncn3-c2nnc(C(F)F)s2)CC1 [Compound B003] | 16 | 10.2
CN(C)C(=O)N1CCN(c2cc(S(=O)(=O)NC3(C#N)CC3)cc3c2nc(OC2CC2)n3-c2nnc(C(F)F)s2)CC1 [Compound 057M] | 6 | 2.8
C=CCn1c(=O)n(-c2nnc(C(F)F)s2)c2cc(S(=O)(=O)NC3(C#N)CC3)cc(N3CCN(S(=N)(=O)C(C)C)CC3)c21 (stereo not shown) [Compound 074G] | 40 | 3.3
CN(C)C(=O)N1CC=C(c2cc(S(=O)(=O)NC3(C)CC3)cc3c2n(C)c(=O)n3-c2nnc(C(F)F)s2)CC1 [Compound A038] | 7 | 5.2
C[C@H]1CN(c2cc(S(=O)(=O)NC3(CF)CC3)cc3c2c2nccnc2n3-c2nnc(C(F)F)s2)C[C@H](C)N1 [Compound 065I] | 5 | 1.8
C=CCn1c(=O)n(-c2nnc(C(F)(F)F)s2)c2cc(S(=O)(=O)NC3(C#N)CC3)cc(N3CCN(C(=O)C(C)(C)O)CC3)c21 [Compound 070B] | 25 | 20.3
CN(C)C(=O)N1CCN(c2cc(S(=O)(=O)NC3(C#N)CC3)cc3c2n(C)c(=O)n3-c2nnc(C(F)F)s2)CC1 [Compound A013] | 13 | 2.9
[2H]C([2H])([2H])C1(NS(=O)(=O)c2cc(N3C[C@H](C)N[C@@H](C)C3)c3c4nccnc4n(-c4nnc(C(F)F)s4)c3c2)CC1 [Compound 065J] | 7 | 2.4
C=CCn1c(=O)n(-c2nnc(C(F)F)s2)c2cc(S(=O)(=O)NC3(C#N)CC3)cc(N3CCN(C(=O)C4COC4)CC3)c21 [Compound 067V] | 83 | 13.4
CN(C)C(=O)N1CCN(c2cc(S(=O)(=O)NC3(CF)CC3)cc3c2n(C)c(=O)n3-c2nnc(C(F)F)s2)CC1 [Compound A032] | 5 | 2.4
C=CCn1c(=O)n(-c2nnc(C(F)F)s2)c2cc(S(=O)(=O)NC3(C#N)CC3)cc(N3CCN(C(=O)C(C)(O)C(F)(F)F)CC3)c21 (stereo not shown) [Compound 073A] | 34 | 30.6
CC(C)n1c(=O)n(-c2nnc(C(F)F)s2)c2cc(S(=O)(=O)NC3(C#N)CC3)cc(N3CCN(C(=O)C(C)(C)F)CC3)c21 [Compound A048] | 27 | 34.8

SMILES | IC50 (KURAMOCHI cells) [nM] | IC50 (PARG) [nM]
CC(C)C(=O)N1CCN(c2cc(S(=O)(=O)NC3(C#N)CC3)cc3c2n(C(C)C)c(=O)n3-c2nnc(C(F)F)s2)CC1 [Compound A050] | 20 | 22.5
CN(C)C(=O)N1CCC(c2cc(S(=O)(=O)NC3(C)CC3)cc3c2n(C)c(=O)n3-c2nnc(C(F)F)s2)CC1 [Compound A039] | 7 | 3.5
C[C@H]1CN(c2cc(S(=O)(=O)NC3(C)CC3)cn3c(-c4nnc(C(F)F)s4)cnc23)C[C@H](C)N1 [Compound 080J] | 5 | 2.4
CN(C)C(=O)N1CCN(c2cc(S(=O)(=O)NC3(C)CC3)cc3c2n(C)c(=O)n3-c2nnc(C(F)F)s2)CC1 [Compound A006] | 8 | 3.7
C[C@H]1CN(c2cc(S(=O)(=O)NC3(C)CC3)cc3c2n2nc(C(C)(C)O)nc2n3-c2nnc(C(F)F)s2)C[C@H](C)N1 [Compound 065T] | 13 | 1.5
C=CCn1c(=O)n(-c2nnc(C(F)F)s2)c2cc(S(=O)(=O)NC3(C#N)CC3)cc(N3CCN(C(=O)C4(OC)CC4)CC3)c21 [Compound 067N] | 3 | 3.1
C[C@H]1CN(c2cc(S(=O)(=O)NC3(C)CC3)cc3c2nc(C2CC(F)(F)CO2)n3-c2nnc(C(F)F)s2)C[C@H](C)N1 (stereo partly shown) [Compound 079J] | 4 | 1.8
C[C@H]1CN(c2cc(S(=O)(=O)NC3(C#N)CC3)cc3c2ncn3-c2nnc(C(F)F)s2)C[C@H](C)N1 [Compound B016] | 74 | 21.2
CC(C)n1c(=O)n(-c2nnc(C(F)F)s2)c2cc(S(=O)(=O)NC3(C#N)CC3)cc(N3CCN(S(=O)(=O)C(C)C)CC3)c21 [Compound A046] | 8 | 5.5
CC(C)Oc1nc2c(N3C[C@H](C)N[C@@H](C)C3)cc(S(=O)(=O)NC3(C)CC3)cc2n1-c1nnc(C(F)F)s1 [Compound 077G] | 2 | 1.6
C=CCn1c(=O)n(-c2nnc(C(F)F)s2)c2cc(S(=O)(=O)NC3(C#N)CC3)cc(N3CCN(C(=O)[C@@H]4CCCO4)CC3)c21 [Compound 076H1] | 34 | 14.4
C=CCn1c(=O)n(-c2nnc(C(F)F)s2)c2cc(S(=O)(=O)NC3(CF)CC3)cc(N3CCN(C(=O)C(C)C)CC3)c21 [Compound 068A] | 4 | 3.5
C=CCn1c(=O)n(-c2nnc(C(F)F)s2)c2cc(S(=O)(=O)NC3(C#N)CC3)cc(N3CCN(C(=O)C4CCCN4C(=O)OC)CC3)c21 (stereo not shown) [Compound 076E] | 35 | 4.9
CC(C)S(=O)(=O)N1CCN(c2cc(S(=O)(=O)NC3(C)CC3)cc3c2n(C)c(=O)n3-c2nnc(C(F)F)s2)CC1 [Compound A023] | 4 | 1.5
C=CCn1c(=O)n(-c2nnc(C(F)F)s2)c2cc(S(=O)(=O)NC3(C)COC3)cc(N3CCN(C(=O)C(C)C)CC3)c21 [Compound 068B] | 17 | 15.8
C=CCn1c(=O)n(-c2nnc(C(F)F)s2)c2cc(S(=O)(=O)NC3(C#N)CC3)cc(N3CCN(C(=O)C4CCCC4)CC3)c21 [Compound 067X] | 23 | 21.1
